Converted amounts (≈) assume the structure as drawn. “And” between values parts separate entries of the source, which are not always exact repeats. Identical values can stand only once.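 Exposure lasted 48 hours, with cells grown in 96-well plates and compounds tested at five concentrations. GI50 = concentration required for 50% inhibition of growth. TGI denotes the concentration required for complete inhibition of growth.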 The source made the active and inactive calls. Rule as the data show it: active = GI50 below about 0.43 µM; inactive = the rest.
How the values were obtained:
Assay in all cases: NCI tumour cell line growth inhibition, 48 h
A498 renal = system: A498 renal
A549 NSCLC = system: A549 NSCLC
CAKI-1 renal = system: CAKI-1 renal
CCRF-CEM leukemia = system: CCRF-CEM leukemia
COLO 205 colon = system: COLO 205 colon
DLD-1 colon = system: DLD-1 colon
DMS 114 small cell lung = system: DMS 114 small cell lung
EKVX NSCLC = system: EKVX NSCLC
HCC-2998 colon = system: HCC-2998 colon
HCT-15 colon = system: HCT-15 colon
HL-60(TB) leukemia = system: HL-60(TB) leukemia
HOP-62 NSCLC = system: HOP-62 NSCLC
HOP-92 NSCLC = system: HOP-92 NSCLC
HT29 colon = system: HT29 colon
K-562 leukemia = system: K-562 leukemia
KM12 colon = system: KM12 colon
KM20L2 colon = system: KM20L2 colon
M19-MEL melanoma = system: M19-MEL melanoma
MCF7 breast = system: MCF7 breast
MOLT-4 leukemia = system: MOLT-4 leukemia
NCI-H226 lung = system: NCI-H226 lung
NCI-H23 lung = system: NCI-H23 lung
NCI-H460 lung = system: NCI-H460 lung
NCI-H522 lung = system: NCI-H522 lung
OVCAR-3 ovarian = system: OVCAR-3 ovarian
OVCAR-4 ovarian = system: OVCAR-4 ovarian
OVCAR-5 ovarian = system: OVCAR-5 ovarian
P388 leukemia = system: P388 leukemia
P388/ADR leukemia = system: P388/ADR leukemia
RPMI-8226 leukemia = system: RPMI-8226 leukemia
RXF 393 renal = system: RXF 393 renal
SF-295 CNS = system: SF-295 CNS
SF-539 CNS = system: SF-539 CNS
SK-OV-3 ovarian = system: SK-OV-3 ovarian
SN12C renal = system: SN12C renal
SN12K1 renal = system: SN12K1 renal
SNB-75 CNS = system: SNB-75 CNS
SW-620 colon = system: SW-620 colon
U251 CNS = system: U251 CNS
UACC-257 melanoma = system: UACC-257 melanoma
UO-31 renal = system: UO-31 renal
786-0 renal = system: 786-0 renal
DMS 273 small cell lung = system: DMS 273 small cell lung
HCT-116 colon = system: HCT-116 colon
IGROV1 ovarian = system: IGROV1 ovarian
LOX IMVI melanoma = system: LOX IMVI melanoma
LXFL 529 NSCLC = system: LXFL 529 NSCLC
M14 melanoma = system: M14 melanoma
MALME-3M melanoma = system: MALME-3M melanoma
OVCAR-8 ovarian = system: OVCAR-8 ovarian
RXF-631 renal = system: RXF-631 renal
SF-268 CNS = system: SF-268 CNS
SK-MEL-2 melanoma = system: SK-MEL-2 melanoma
SK-MEL-28 melanoma = system: SK-MEL-28 melanoma
SNB-19 CNS = system: SNB-19 CNS
SNB-78 CNS = system: SNB-78 CNS
SR leukemia = system: SR leukemia
TK-10 renal = system: TK-10 renal
UACC-62 melanoma = system: UACC-62 melanoma
XF 498 CNS = system: XF 498 CNS

## Cc1c2ccncc2c(C)c2c1[nH]c1ccc(O)cc12
A498 renal
  GI50: 0.501 µg/mL (≈ 1.91 µM)
  TGI: 1.9 µg/mL
A549 NSCLC
  TGI: 0.397 µg/mL
CAKI-1 renal
  GI50: 0.0137 µg/mL (≈ 0.0522 µM)
  TGI: 0.0686 µg/mL
CCRF-CEM leukemia
  GI50: 0.0158 µg/mL (≈ 0.06 µM)
  TGI: 0.31 µg/mL
COLO 205 colon
  GI50: 0.0699 µg/mL (≈ 0.267 µM)
  TGI: 0.455 µg/mL (≈ 1.73 µM)
DLD-1 colon
  GI50: 0.023 µg/mL (≈ 0.0875 µM)
  TGI: 0.883 µg/mL (≈ 3.37 µM)
DMS 114 small cell lung
  GI50: 0.0226 µg/mL (≈ 0.0863 µM)
  TGI: 0.227 µg/mL
EKVX NSCLC
  GI50: 0.0921 µg/mL (≈ 0.351 µM)
  TGI: 0.273 µg/mL (≈ 1.04 µM)
HCC-2998 colon
  GI50: 0.261 µg/mL (≈ 0.996 µM)
  TGI: 1.63 µg/mL
HCT-15 colon
  GI50: 0.0107 µg/mL (≈ 0.0409 µM)
  TGI: 0.361 µg/mL
HL-60(TB) leukemia
  TGI: 0.0548 µg/mL
HOP-62 NSCLC
  GI50: 0.0255 µg/mL (≈ 0.0972 µM)
  TGI: 0.206 µg/mL
HOP-92 NSCLC
  GI50: 0.0448 µg/mL (≈ 0.171 µM)
  TGI: 0.579 µg/mL
HT29 colon
  GI50: 0.185 µg/mL (≈ 0.704 µM)
  TGI: 1.23 µg/mL
K-562 leukemia
  GI50: 0.0182 µg/mL (≈ 0.0695 µM)
  TGI: 0.675 µg/mL
KM12 colon
  GI50: 0.0458 µg/mL (≈ 0.174 µM)
  TGI: 0.271 µg/mL
KM20L2 colon
  outcome: inactive
M19-MEL melanoma
  GI50: 0.0231 µg/mL (≈ 0.0881 µM)
  TGI: 0.388 µg/mL
MCF7 breast
  GI50: 0.0319 µg/mL (≈ 0.122 µM)
  TGI: 0.338 µg/mL (≈ 1.29 µM)
MOLT-4 leukemia
  TGI: 0.0671 µg/mL
NCI-H226 lung
  GI50: 0.137 µg/mL (≈ 0.522 µM)
  TGI: 1.08 µg/mL
NCI-H23 lung
  GI50: 11800 µM
  TGI: 84.1 mM and 0.0172 µg/mL
NCI-H460 lung
  GI50: 0.0157 µg/mL (≈ 0.0598 µM)
  TGI: 0.0467 µg/mL
NCI-H522 lung
  TGI: 0.172 µg/mL
OVCAR-3 ovarian
  GI50: 0.0909 µg/mL (≈ 0.347 µM)
  TGI: 0.435 µg/mL
OVCAR-4 ovarian
  GI50: 0.148 µg/mL (≈ 0.564 µM)
  TGI: 0.303 µg/mL
OVCAR-5 ovarian
  GI50: 0.239 µg/mL (≈ 0.909 µM)
  TGI: 0.831 µg/mL
P388 leukemia
  TGI: 0.232 µg/mL (≈ 0.886 µM)
P388/ADR leukemia
  GI50: 0.014 µg/mL (≈ 0.0532 µM)
  TGI: 1.75 µg/mL (≈ 6.66 µM)
RPMI-8226 leukemia
  GI50: 0.0217 µg/mL (≈ 0.0826 µM)
  TGI: 0.129 µg/mL
RXF 393 renal
  GI50: 0.102 µg/mL (≈ 0.387 µM)
SF-295 CNS
  GI50: 0.0181 µg/mL (≈ 0.0692 µM)
  TGI: 0.167 µg/mL
SF-539 CNS
  GI50: 0.263 µg/mL (≈ 1 µM)
  TGI: 1.29 µg/mL
SK-OV-3 ovarian
  GI50: 0.0393 µg/mL (≈ 0.15 µM)
  TGI: 0.261 µg/mL
SN12C renal
  TGI: 0.0638 µg/mL
SN12K1 renal
  GI50: 0.0168 µg/mL (≈ 0.0639 µM)
  TGI: 0.182 µg/mL (≈ 0.695 µM)
SNB-75 CNS
  GI50: 22600 µM
SW-620 colon
  GI50: 0.0267 µg/mL (≈ 0.102 µM)
  TGI: 3.94 µg/mL
U251 CNS
  GI50: 0.042 µg/mL (≈ 0.16 µM)
  TGI: 0.35 µg/mL
UACC-257 melanoma
  GI50: 0.267 µg/mL (≈ 1.02 µM)
  TGI: 1.12 µg/mL
UO-31 renal
  GI50: 0.073 µg/mL (≈ 0.278 µM)
  TGI: 1.09 µg/mL

## O=C1c2c(c3c4ccccc4n(CC4CO4)c3c3[nH]c4ccccc4c23)C(=O)N1Cc1ccccc1 (centres undefined)
786-0 renal
  TGI: > 100 µM
A498 renal
  TGI: > 100 µM
A549 NSCLC
  TGI: > 100 µM
CAKI-1 renal
  TGI: > 100 µM
CCRF-CEM leukemia
  TGI: > 100 µM
DMS 114 small cell lung
  TGI: > 100 µM
DMS 273 small cell lung
  TGI: > 100 µM
HCC-2998 colon
  TGI: > 100 µM
HCT-116 colon
  TGI: > 100 µM
HCT-15 colon
  TGI: > 100 µM
HL-60(TB) leukemia
  TGI: > 100 µM
HOP-62 NSCLC
  TGI: > 100 µM
HOP-92 NSCLC
  TGI: > 100 µM
HT29 colon
  TGI: > 100 µM
IGROV1 ovarian
  TGI: > 100 µM
K-562 leukemia
  TGI: > 100 µM
KM12 colon
  TGI: > 100 µM
LOX IMVI melanoma
  TGI: > 100 µM
LXFL 529 NSCLC
  TGI: > 100 µM
M14 melanoma
  TGI: > 100 µM
M19-MEL melanoma
  TGI: > 100 µM
MALME-3M melanoma
  TGI: > 100 µM
MOLT-4 leukemia
  TGI: > 100 µM
NCI-H226 lung
  TGI: > 100 µM
NCI-H23 lung
  TGI: > 100 µM
NCI-H460 lung
  TGI: > 100 µM
NCI-H522 lung
  TGI: > 100 µM
OVCAR-3 ovarian
  TGI: > 100 µM
OVCAR-4 ovarian
  TGI: > 100 µM
OVCAR-5 ovarian
  TGI: > 100 µM
OVCAR-8 ovarian
  TGI: > 100 µM
RPMI-8226 leukemia
  TGI: > 100 µM
RXF 393 renal
  TGI: > 100 µM
RXF-631 renal
  TGI: > 100 µM
SF-268 CNS
  TGI: > 100 µM
SF-295 CNS
  TGI: > 100 µM
SF-539 CNS
  TGI: > 100 µM
SK-MEL-2 melanoma
  TGI: > 100 µM
SK-MEL-28 melanoma
  TGI: > 100 µM
SK-OV-3 ovarian
  TGI: > 100 µM
SN12C renal
  TGI: > 100 µM
SNB-19 CNS
  TGI: > 100 µM
SNB-78 CNS
  TGI: > 100 µM
SR leukemia
  TGI: > 100 µM
SW-620 colon
  TGI: > 100 µM
TK-10 renal
  TGI: > 100 µM
U251 CNS
  TGI: > 100 µM
UACC-257 melanoma
  TGI: > 100 µM
UACC-62 melanoma
  TGI: > 100 µM
UO-31 renal
  TGI: > 100 µM
XF 498 CNS
  TGI: > 100 µM

Source: PubChem BioAssay (NCI)
